Test results published in patent US20250032630A1, “B7H4 ANTIBODY-DRUG CONJUGATE AND USE THEREOF” (Duality Biologics (Suzhou) Co., Ltd., priority 2022, published 2025).
Like-named read-outs stand apart in the source and are kept apart here.

Experiments:
[1] = tested on: Colo205 cells; test: In vitro proliferation inhibition test of small molecule compound (CTG, 6 days), Example 3.2; assay type: cell-based; details: Homo sapiens, COLO 205, 144 h, read-out: Abs-IC50
Procedure: (§1) To detect the inhibitory activity of the drug compound against the proliferation of NCI-N87 and Colo205 tumor cells in vitro. Cells were treated with different concentrations of the compound in vitro, after 6 days of culture, the proliferation of the cells was detected using CTG (CellTiter-Glo® Luminescent Cell Viability Assay, Promega, Cat. No.: G7558) reagent, and the in vitro activity of the compound was evaluated according to the IC50 values. • 1. Cell culture: NCI-N87/Colo205 cells were cultured with 10% FBS RPMI-1640 medium. • 2. Preparation of cells: the NCI-N87/Colo205 cells in the logarithmic growth phase were taken and washed once with PBS, and 2-3 ml of trypsin was then added for digestion for 2-3 min. After the cells were completely digested, 10-15 ml of cell culture medium was added to elute the digested cells, the cells were centrifuged at 1000 rpm for 5 min, the supernatant was discarded, and then 10-20 ml of cell culture medium was added to resuspend the cells to prepare a single cell suspension. • 3. Cell plating: the NCI-N87/Colo205 single cell suspensions were mixed uniformly, and respectively adjusted to a live cell density of 6×10^4 cells/ml with a cell culture medium, and the density-adjusted cell suspensions were mixed uniformly, and added to 96-well cell culture plates at 50 ul/well. The culture plates were cultured in an incubator for 18 hours (37° C., 5% CO2). • 4. Preparation of compound: the compound was dissolved in DMSO to formulate a stock solution with an initial concentration of 10 mM.
(§2) A total of 8 concentrations of the small molecule compound were involved: 300, 100, 30, 10, 3, 1, 0.3, and 0.1 nM, respectively. • 5. Sample loading operation: different concentrations of the formulated samples to be tested were added to culture plates, with two replicate wells for each sample. The culture plates were incubated in an incubator for 6 days (37° C., 5% CO2). • 6. Color development operation: the 96-well cell culture plates were taken out, 50 ul of CTG reagent was added to each well, and the plates were incubated for 10 minutes at room temperature. • 7. Plate reading operation: the 96-well cell culture plates were taken out, and placed in a microplate reader, and the chemiluminescence was determined using the microplate reader.
(§3) Data analysis: the data was processed and analyzed using Microsoft Excel and Graphpad Prism 5.

[2] = tested on: NCI-N87 cells; test: as above; assay type: cell-based; details: Homo sapiens, read-out: Abs-IC50
Procedure: as §1, §2, §3

[3] = tested on: breast cancer cells JIMT-1 negative for B7H4 expression; test: In vitro proliferation inhibition (3D cell culture, CTG); assay type: cell-based; details: Homo sapiens, 144 h, JIMT-1, 3D culture, 6 days
Procedure: (§4) The cells in the logarithmic growth phase were collected and a cell culture medium was added to resuspend the cells to prepare a single cell suspension. The single cell suspension was adjusted to a live cell density of […], and 3.5 mL of the cell suspension was mixed uniformly with 6.5 mL of 1% methylcellulose, avoiding bubbles as much as possible. 90 μL of the cell suspension was added to each well of 96-well plates, and the plates were cultured overnight in an incubator with 5% CO2 at 37° C. On the second day of the experiment, the test article was diluted with a complete medium to obtain a 10× solution, 10 μL of the test article solution (the highest final concentration of 100 nM, 9 concentrations, 3-fold dilution) was added to each well, the complete medium was used as a blank control, and 3 replicate wells were set up; and the plates were incubated in the incubator at 37° C. for another 6 days. After the incubation was completed, the cell culture plates were taken out and equilibrated to room temperature, and 100 μL of CTG detection reagent (Promega, Cat #: G7573) was added to each well. The plates were shaken and mixed uniformly, then left to stand in the dark for 10 minutes, and then placed at room temperature for 30 minutes to stabilize the luminescence signal. Luminescence was read using EnVision. Using GraphPad Prism software, a sigmoidal dose-response curve was plotted by using a non-linear regression model, and the IC50 value was calculated. Cell viability calculation

[4] = tested on: endometrial carcinoma cells RL95-2 with low expression of B7H4; test: as above; assay type: cell-based; details: Homo sapiens, 144 h, RL95-2, 3D culture, 6 days
Procedure: as §4

[5] = tested on: human breast cancer cells MX-1 with high expression of B7H4; test: as above; assay type: cell-based; details: 144 h, MX-1, 3D culture, 6 days
Procedure: as §4

[6] = biological target: T1, human B7H4 (human, UniProt Q7Z7D3 25-282); test: cell-based or functional assay
T1 sequence (looked up): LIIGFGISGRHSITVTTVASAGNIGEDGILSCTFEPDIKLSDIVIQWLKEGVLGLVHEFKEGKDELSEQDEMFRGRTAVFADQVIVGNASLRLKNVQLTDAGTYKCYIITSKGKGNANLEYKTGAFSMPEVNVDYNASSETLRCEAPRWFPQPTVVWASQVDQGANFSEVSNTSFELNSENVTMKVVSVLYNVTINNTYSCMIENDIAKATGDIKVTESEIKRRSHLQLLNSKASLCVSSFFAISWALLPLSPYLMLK

[7] = highest concentration 100 nM, read-out: Max inh.

CC[C@@]1(O)C(=O)OCc2c1cc1n(c2=O)Cc2c-1nc1cc(F)c(C)c3c1c2[C@@H](NC(=O)C[C@H](C)O)CC3 [P-III-30]
IC50 ([1]; Colo205, 6 days, CTG): 103 nM
IC50 ([2]; 144 h, NCI-N87, 6 days, CTG): 6.5 nM
IC50 [3]: 24.3 nM
inhibition at up to 0.1 µM [3, 7]: 71%
IC50 [4]: 0.843 nM
inhibition at up to 0.1 µM [4, 7]: 95.1%
IC50 [5]: 1.77 nM
inhibition at up to 0.1 µM [5, 7]: 84.5%

CC[C@@]1(O)C(=O)OCc2c1cc1n(c2=O)Cc2c-1nc1cc(F)c(C)c3c1c2[C@@H](NC(=O)CCN)CC3 [Reference example 1, reference compound]
IC50 [1]: > 1000 nM
IC50 ([2]; NCI-N87, 144 h): > 300 nM

B1: antibody-drug conjugate DB1001-X1 (antibody, DAR 3.89, V domains shown)
VH: QVQLVESGGGVVQPGRSLRLSCAASGFTFRSFGMHWVRQAPGKGLEWVAVISYDASNEYYADSVKGRFIISRDNSKDTLYLQMNSLRAGDTAVYYCAKGGALRWYFAYWGQGTLVTVSS
VL: EIVMTQSPATLSVSPGERATLSCRASQSISSNLGWYQQKPGQAPRLLIYGASTRATGIPARFSGSGSGTEFTLTISSLQSEDFAVYYCQQYRSWPPLTFGGGTKVEIKR
modifications: linker-cytotoxin X1 (payload P-II-3) coupled after TCEP reduction of the antibody; drug-to-antibody ratio (DAR) of 3.89; conjugation residues not stated
IC50 (nM), in vitro proliferation inhibition of MDA-MB-468 cells (CTG, 7 days) [6]: 30.3 nM
